Experimental data from ChEMBL document CHEMBL1782000, “Thiazole-based chalcones as potent antimicrobial agents. Synthesis and biological evaluation” (2011).
≈ marks a conversion by molar mass, not a printed value.

Key:
Staphylococcus aureus [1] = test: Antibacterial activity against Staphylococcus aureus ATCC 6538 after 24 hrs by microdilution method; type: functional; conditions: ATCC 6538, 24 h
Bacillus cereus [2] = test: Antibacterial activity against Bacillus cereus clinical isolate after 24 hrs by microdilution method; type: functional
Micrococcus flavus [3] = test: Antibacterial activity against Micrococcus flavus ATCC 10240 after 24 hrs by microdilution method; type: functional; conditions: ATCC 10240, 24 h
Listeria monocytogenes [4] = test: Antibacterial activity against Listeria monocytogenes NCTC 7973 after 24 hrs by microdilution method; type: functional; conditions: NCTC 7973, 24 h
Pseudomonas aeruginosa [5] = test: Antibacterial activity against Pseudomonas aeruginosa ATCC 27853 after 24 hrs by microdilution method; type: functional; conditions: ATCC 27853, 24 h
Salmonella typhimurium [6] = test: Antibacterial activity against Salmonella Typhimurium ATCC 13311 after 24 hrs by microdilution method; type: functional, Salmonella enterica subsp. enterica serovar Typhimurium; conditions: Salmonella enterica, ATCC 13311, 24 h
Escherichia coli [7] = test: Antibacterial activity against Escherichia coli ATCC 35210 after 24 hrs by microdilution method; type: functional; conditions: ATCC 35210, 24 h
Enterococcus faecalis [8] = test: Antibacterial activity against Enterococcus faecalis isolate obtained from human after 24 hrs by microdilution method; type: functional
Staphylococcus aureus [9] = test: Bactericidal activity against Staphylococcus aureus ATCC 6538 after 24 hrs; type: functional; conditions: ATCC 6538, 24 h
Bacillus cereus [10] = test: Bactericidal activity against Bacillus cereus clinical isolate after 24 hrs; type: functional
Micrococcus flavus [11] = test: Bactericidal activity against Micrococcus flavus ATCC 10240 after 24 hrs; type: functional; conditions: ATCC 10240, 24 h
Listeria monocytogenes [12] = test: Bactericidal activity against Listeria monocytogenes NCTC 7973 after 24 hrs; type: functional; conditions: NCTC 7973, 24 h
Pseudomonas aeruginosa [13] = test: Bactericidal activity against Pseudomonas aeruginosa ATCC 27853 after 24 hrs; type: functional; conditions: ATCC 27853, 24 h
Salmonella typhimurium [14] = test: Bactericidal activity against Salmonella Typhimurium ATCC 13311 after 24 hrs; type: functional, Salmonella enterica subsp. enterica serovar Typhimurium; conditions: Salmonella enterica, ATCC 13311, 24 h
Escherichia coli [15] = test: Bactericidal activity against Escherichia coli ATCC 35210 after 24 hrs; type: functional; conditions: ATCC 35210, 24 h
Enterococcus faecalis [16] = test: Bactericidal activity against Enterococcus faecalis isolate obtained from human after 24 hrs; type: functional
Aspergillus ochraceus [17] = test: Antifungal activity against Aspergillus ochraceus ATCC 12066 after 72 hrs by serial dilution method; type: functional; conditions: ATCC 12066, 72 h
Aspergillus versicolor [18] = test: Antifungal activity against Aspergillus versicolor ATCC 11730 after 72 hrs by serial dilution method; type: functional; conditions: ATCC 11730, 72 h
Aspergillus niger [19] = test: Antifungal activity against Aspergillus niger ATCC 6275 after 72 hrs by serial dilution method; type: functional; conditions: ATCC 6275, 72 h
Aspergillus fumigatus [20] = test: Antifungal activity against Aspergillus fumigatus plant isolate after 72 hrs by serial dilution method; type: functional
Trichoderma viride [21] = test: Antifungal activity against Trichoderma viride IAM 5061 after 72 hrs by serial dilution method; type: functional; conditions: IAM 5061, 72 h
Penicillium ochrochloron [22] = test: Antifungal activity against Penicillium ochrochloron ATCC 9112 after 72 hrs by serial dilution method; type: functional; conditions: ATCC 9112, 72 h
Talaromyces funiculosus [23] = test: Antifungal activity against Penicillium funiculosum ATCC 36839 after 72 hrs by serial dilution method; type: functional; conditions: ATCC 36839, 72 h
[24] = Antifungal activity against Fusarium sporotrichioides IMT 496 after 72 hrs by serial dilution method; type: functional
Aspergillus ochraceus [25] = test: Fungicidal activity against Aspergillus ochraceus ATCC 12066 after 72 hrs; type: functional; conditions: ATCC 12066, 72 h
Aspergillus versicolor [26] = test: Fungicidal activity against Aspergillus versicolor ATCC 11730 after 72 hrs; type: functional; conditions: ATCC 11730, 72 h
Aspergillus niger [27] = test: Fungicidal activity against Aspergillus niger ATCC 6275 after 72 hrs; type: functional; conditions: ATCC 6275, 72 h
Aspergillus fumigatus [28] = test: Fungicidal activity against Aspergillus fumigatus plant isolate after 72 hrs; type: functional
Trichoderma viride [29] = test: Fungicidal activity against Trichoderma viride IAM 5061 after 72 hrs; type: functional; conditions: IAM 5061, 72 h
Penicillium ochrochloron [30] = test: Fungicidal activity against Penicillium ochrochloron ATCC 9112 after 72 hrs; type: functional; conditions: ATCC 9112, 72 h
Talaromyces funiculosus [31] = test: Fungicidal activity against Penicillium funiculosum ATCC 36839 after 72 hrs; type: functional; conditions: ATCC 36839, 72 h
[32] = test system: Fusarium sporotrichioides; test: Fungicidal activity against Fusarium sporotrichioides IMT 496 after 72 hrs; type: functional; conditions: IMT 496, 72 h

Structure (SMILES): CNc1nc(C)c(C(=O)/C=C/c2cccc([N+](=O)[O-])c2)s1
- MIC (Staphylococcus aureus [1]): 330 µM (≈ 100 µg/mL)
- MIC (Bacillus cereus [2]): 330 µM (≈ 100 µg/mL)
- MIC (Micrococcus flavus [3]): 330 µM (≈ 100 µg/mL)
- MIC (Listeria monocytogenes [4]): 330 µM (≈ 100 µg/mL)
- MIC (Pseudomonas aeruginosa [5]): 280 µM (≈ 85.1 µg/mL)
- MIC (Salmonella typhimurium [6]): 280 µM (≈ 85.1 µg/mL)
- MIC (Escherichia coli [7]): 248 µM (≈ 75.1 µg/mL)
- MIC (Enterococcus faecalis [8]): 330 µM (≈ 100 µg/mL)
- MBC (Staphylococcus aureus [9]): 495 µM (≈ 150 µg/mL)
- MBC (Bacillus cereus [10]): 330 µM (≈ 100 µg/mL)
- MBC (Micrococcus flavus [11]): 495 µM (≈ 150 µg/mL)
- MBC (Listeria monocytogenes [12]): 495 µM (≈ 150 µg/mL)
- MBC (Pseudomonas aeruginosa [13]): 330 µM (≈ 100 µg/mL)
- MBC (Salmonella typhimurium [14]): 330 µM (≈ 100 µg/mL)
- MBC (Escherichia coli [15]): 330 µM (≈ 100 µg/mL)
- MBC (Enterococcus faecalis [16]): 330 µM (≈ 100 µg/mL)
- MIC (Aspergillus ochraceus [17]): 330 µM (≈ 100 µg/mL)
- MIC (Aspergillus versicolor [18]): 330 µM (≈ 100 µg/mL)
- MIC (Aspergillus niger [19]): 330 µM (≈ 100 µg/mL)
- MIC (Aspergillus fumigatus [20]): 330 µM (≈ 100 µg/mL)
- MIC (Trichoderma viride [21]): 165 µM (≈ 50.1 µg/mL)
- MIC (Penicillium ochrochloron [22]): 330 µM (≈ 100 µg/mL)
- MIC (Talaromyces funiculosus [23]): 330 µM (≈ 100 µg/mL)
- MIC (10'-2 umol/ml) [24]: 33
- MFC (Aspergillus ochraceus [25]): 496 µM (≈ 150 µg/mL)
- MFC (Aspergillus versicolor [26]): 496 µM (≈ 150 µg/mL)
- MFC (Aspergillus niger [27]): 660 µM (≈ 200 µg/mL)
- MFC (Aspergillus fumigatus [28]): 496 µM (≈ 150 µg/mL)
- MFC (Trichoderma viride [29]): 330 µM (≈ 100 µg/mL)
- MFC (Penicillium ochrochloron [30]): 496 µM (≈ 150 µg/mL)
- MFC (Talaromyces funiculosus [31]): 496 µM (≈ 150 µg/mL)
- MFC [32]: 660 µM (≈ 200 µg/mL)

Structure (SMILES): CN[C@@H]1[C@H](O[C@H]2[C@H](O[C@H]3[C@H](O)[C@@H](O)[C@H](N=C(N)N)[C@@H](O)[C@@H]3N=C(N)N)O[C@@H](C)[C@]2(O)C=O)O[C@@H](CO)[C@H](O)[C@H]1O [STREPTOMYCIN]
- MIC (Staphylococcus aureus [1]): 17.1 µM (≈ 9.95 µg/mL)
- MIC (Bacillus cereus [2]): 2 µM (≈ 1.16 µg/mL)
- MIC (Micrococcus flavus [3]): 2 µM (≈ 1.16 µg/mL)
- MIC (Listeria monocytogenes [4]): 17.1 µM (≈ 9.95 µg/mL)
- MIC (Pseudomonas aeruginosa [5]): 2 µM (≈ 1.16 µg/mL)
- MIC (Salmonella typhimurium [6]): 2 µM (≈ 1.16 µg/mL)
- MIC (Escherichia coli [7]): 8.6 µM (≈ 5 µg/mL)
- MIC (Enterococcus faecalis [8]): 4.3 µM (≈ 2.5 µg/mL)
- MBC (Staphylococcus aureus [9]): 42.9 µM (≈ 24.9 µg/mL)
- MBC (Bacillus cereus [10]): 4.3 µM (≈ 2.5 µg/mL)
- MBC (Micrococcus flavus [11]): 4.3 µM (≈ 2.5 µg/mL)
- MBC (Listeria monocytogenes [12]): 43 µM (≈ 25 µg/mL)
- MBC (Pseudomonas aeruginosa [13]): 4.3 µM (≈ 2.5 µg/mL)
- MBC (Salmonella typhimurium [14]): 4.3 µM (≈ 2.5 µg/mL)
- MBC (Escherichia coli [15]): 17.1 µM (≈ 9.95 µg/mL)
- MBC (Enterococcus faecalis [16]): 8.6 µM (≈ 5 µg/mL)

Structure (SMILES): CNc1nc(C)c(C(=O)/C=C/c2ccccc2OC)s1
- MIC (Staphylococcus aureus [1]): 347 µM (≈ 100 µg/mL)
- MIC (Bacillus cereus [2]): 347 µM (≈ 100 µg/mL)
- MIC (Micrococcus flavus [3]): 260 µM (≈ 75.1 µg/mL)
- MIC (Listeria monocytogenes [4]): 347 µM (≈ 100 µg/mL)
- MIC (Pseudomonas aeruginosa [5]): 295 µM (≈ 85.1 µg/mL)
- MIC (Salmonella typhimurium [6]): 347 µM (≈ 100 µg/mL)
- MIC (Escherichia coli [7]): 260 µM (≈ 75.1 µg/mL)
- MIC (Enterococcus faecalis [8]): 260 µM (≈ 75.1 µg/mL)
- MBC (Staphylococcus aureus [9]): 347 µM (≈ 100 µg/mL)
- MBC (Bacillus cereus [10]): 347 µM (≈ 100 µg/mL)
- MBC (Micrococcus flavus [11]): 295 µM (≈ 85.1 µg/mL)
- MBC (Listeria monocytogenes [12]): 521 µM (≈ 150 µg/mL)
- MBC (Pseudomonas aeruginosa [13]): 347 µM (≈ 100 µg/mL)
- MBC (Salmonella typhimurium [14]): 521 µM (≈ 150 µg/mL)
- MBC (Escherichia coli [15]): 347 µM (≈ 100 µg/mL)
- MBC (Enterococcus faecalis [16]): 347 µM (≈ 100 µg/mL)
- MIC (Aspergillus ochraceus [17]): 170 µM (≈ 49 µg/mL)
- MIC (Aspergillus versicolor [18]): 340 µM (≈ 98 µg/mL)
- MIC (Aspergillus niger [19]): 340 µM (≈ 98 µg/mL)
- MIC (Aspergillus fumigatus [20]): 340 µM (≈ 98 µg/mL)
- MIC (Trichoderma viride [21]): 170 µM (≈ 49 µg/mL)
- MIC (Penicillium ochrochloron [22]): 340 µM (≈ 98 µg/mL)
- MIC (Talaromyces funiculosus [23]): 340 µM (≈ 98 µg/mL)
- MIC (10'-2 umol/ml) [24]: 17
- MFC (Aspergillus ochraceus [25]): 340 µM (≈ 98 µg/mL)
- MFC (Aspergillus versicolor [26]): 520 µM (≈ 150 µg/mL)
- MFC (Aspergillus niger [27]): 870 µM (≈ 251 µg/mL)
- MFC (Aspergillus fumigatus [28]): 520 µM (≈ 150 µg/mL)
- MFC (Trichoderma viride [29]): 340 µM (≈ 98 µg/mL)
- MFC (Penicillium ochrochloron [30]): 520 µM (≈ 150 µg/mL)
- MFC (Talaromyces funiculosus [31]): 690 µM (≈ 199 µg/mL)
- MFC [32]: 340 µM (≈ 98 µg/mL)
